Experimental data as given in patent US9232792B2, “Method for promoting plant growth” (SUMITOMO CHEMICAL COMPANY, LIMITED, priority 2011, dated 2016).

Tested on: Rice (cultivar: Nipponbare)
Test: Test Example 7: reduction of drought stress by treatment of rice seeds
Type: in vivo
Settings: drought 2 days, then 14 days hydroponics
Experimental: Rice (cultivar: Nipponbare) A blank slurry solution containing 5% (V/V) color coat red (Becker Underwood, Inc.), 5% (V/V) CF-Clear (Becker Underwood, Inc.) and 1% Maxim XL (Syngenta) was prepared. A slurry solution was prepared by dissolving the present compound 1 in the blank slurry solution such that 50 g or 100 g of the compound is applied to each 100 kg of rice seeds. In a 50-ml centrifuge tube (manufactured by AGC TECHNO GLASS CO., LTD.), 0.3 ml of the slurry solution was placed for each 10 g of rice seeds and stirred until the solution was dried, thereby coating the seeds. In addition, seeds were coated with the blank slurry solution and used as seeds for a non-treated group. A filter paper was placed on the holes of a plug tray having 406 holes, and the rice seeds treated above were sown on the filter paper. […] Fourteen (14) days after the treatment, the fresh weight of the overground parts of five test plants in each treated group was measured. The experiment was performed in three replications in each treated group and the average value was calculated. […]

With `O=C(O)c1cc2cc(C(F)(F)F)ccc2s1` [The present compound 1, 5-(trifluoromethyl)benzo[b]thiophene-2-carboxylic acid] the “fresh weight of the overground part of plants vs non-treated group” value (seed treatment 50 g per 100 kg of seeds) was “much heavier” and the “fresh weight of the overground part of plants vs non-treated group” value (seed treatment 100 g per 100 kg of seeds) was “much heavier”.
